Source: PubChem BioAssay AID248 (DTP/NCI, 2004)
Values joined by “and” are separate entries in the source; they are usually repeats but may differ in a detail not shown here. Equal values may be shown once. Toxic doses and inconclusive results are not listed.

Test system: L1210 leukemia ip in BDF1 mice, survival T/C
Experiment: NCI In Vivo Anticancer Drug Screen. Data for tumor model L1210 Leukemia (intraperitoneal) in B6D2F1 (BDF1) mice
Details: endpoint: mean survival time, higher = longer survival
Method in brief: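 Read-out is survival time, reported as the treated-group measurement over the vehicle-control measurement.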

[1] = dose: 100.0 mg/kg/injection, schedule: Q01DX001 (ip), vehicle: saline
[2] = dose: 200.0 mg/kg/injection, schedule: Q01DX001 (ip), vehicle: saline
[3] = dose: 400.0 mg/kg/injection, schedule: Q01DX001 (ip), vehicle: saline
[4] = dose: 100.0 mg/kg/injection, schedule: Q01DX009 (ip), vehicle: Klucel (hydroxypropylcellulose) (HPC)
[5] = dose: 200.0 mg/kg/injection, schedule: Q01DX009 (ip), vehicle: Klucel (hydroxypropylcellulose) (HPC)
[6] = dose: 400.0 mg/kg/injection, schedule: Q01DX009 (ip), vehicle: Klucel (hydroxypropylcellulose) (HPC)
[7] = dose: 100.0 mg/kg/injection, schedule: Q04DX003 (ip), vehicle: saline with Tween-80
[8] = dose: 200.0 mg/kg/injection, schedule: Q04DX003 (ip), vehicle: saline with Tween-80
[9] = dose: 400.0 mg/kg/injection, schedule: Q04DX003 (ip), vehicle: saline with Tween-80
[10] = dose: 100.0 mg/kg/injection, schedule: Q04DX003 (ip), vehicle: Klucel (hydroxypropylcellulose) (HPC)
[11] = dose: 200.0 mg/kg/injection, schedule: Q04DX003 (ip), vehicle: Klucel (hydroxypropylcellulose) (HPC)

O=C1CN(CCN2CC(=O)NC(=O)C2)CC(=O)N1
T/C (dose: 6.25 mg/kg/injection, schedule: Q03HX008 (ip), vehicle: steriod suspending solution): 112 % of control | T/C (dose: 10.8 mg/kg/injection, schedule: Q01DX009 (ip), vehicle: steriod suspending solution): 103 % of control | T/C (dose: 12.5 mg/kg/injection, schedule: Q01DX009 (ip), vehicle: steriod suspending solution): 154 % of control | T/C (dose: 12.5 mg/kg/injection, schedule: Q01DX009 (oral), vehicle: steriod suspending solution): 123 % of control | T/C (dose: 12.5 mg/kg/injection, schedule: Q01DX009 (sc), vehicle: steriod suspending solution): 116 % of control | T/C (dose: 12.5 mg/kg/injection, schedule: Q03HX024 (ip), vehicle: steriod suspending solution): 177 % of control | T/C (dose: 12.5 mg/kg/injection, schedule: Q03HX032 (ip), vehicle: other): 156 % of control and 167 % of control | T/C (dose: 14.0 mg/kg/injection, schedule: Q01DX009 (ip), vehicle: steriod suspending solution): 108 % of control | T/C (dose: 18.7 mg/kg/injection, schedule: Q03HX032 (ip), vehicle: other): 214 % of control and 216 % of control | T/C (dose: 23.0 mg/kg/injection, schedule: Q01DX009 (ip), vehicle: steriod suspending solution): 119 % of control | T/C (dose: 25.0 mg/kg/injection, schedule: Q01DX009 (oral), vehicle: steriod suspending solution): 116 % of control | T/C (dose: 25.0 mg/kg/injection, schedule: Q01DX Z (ip), vehicle: steriod suspending solution): 150 % of control | T/C (dose: 25.0 mg/kg/injection, schedule: Q03HX024 (ip), vehicle: steriod suspending solution): 153 % of control | T/C (dose: 39.0 mg/kg/injection, schedule: Q01DX001 (ip), vehicle: steriod suspending solution): 109 % of control | T/C (dose: 39.0 mg/kg/injection, schedule: Q01DX009 (ip), vehicle: steriod suspending solution): 152 % of control | T/C (dose: 50.0 mg/kg/injection, schedule: Q01DX001 (ip), vehicle: steriod suspending solution): 107 % of control | T/C (dose: 50.0 mg/kg/injection, schedule: Q01DX009 (ip), vehicle: steriod suspending solution): 212 % of control | T/C (dose: 50.0 mg/kg/injection, schedule: Q01DX009 (oral), vehicle: steriod suspending solution): 113 % of control | T/C (dose: 50.0 mg/kg/injection, schedule: Q01DX009 (sc), vehicle: steriod suspending solution): 154 % of control | T/C (dose: 50.0 mg/kg/injection, schedule: Q01DX Z (ip), vehicle: steriod suspending solution): 164 % of control | T/C (dose: 50.0 mg/kg/injection, schedule: Q03HX008 (ip), vehicle: steriod suspending solution): 164 % of control | T/C (dose: 50.0 mg/kg/injection, schedule: Q03HX024 (ip), vehicle: steriod suspending solution): 165 % of control | T/C (dose: 65.0 mg/kg/injection, schedule: Q01DX001 (ip), vehicle: steriod suspending solution): 118 % of control | T/C (dose: 65.0 mg/kg/injection, schedule: Q01DX009 (ip), vehicle: steriod suspending solution): 176 % of control | T/C (dose: 100.0 mg/kg/injection, schedule: Q01DX001 (ip), vehicle: steriod suspending solution): 112 % of control | T/C (dose: 100.0 mg/kg/injection, schedule: Q01DX009 (oral), vehicle: steriod suspending solution): 121 % of control | T/C (dose: 100.0 mg/kg/injection, schedule: Q04DX003 (ip), vehicle: steriod suspending solution): 154 % of control | T/C (dose: 200.0 mg/kg/injection, schedule: Q01DX001 (ip), vehicle: steriod suspending solution): 166 % of control | T/C (dose: 200.0 mg/kg/injection, schedule: Q04DX003 (ip), vehicle: steriod suspending solution): 189 % of control | T/C (dose: 400.0 mg/kg/injection, schedule: Q01DX001 (ip), vehicle: steriod suspending solution): 119 % of control | T/C (dose: 400.0 mg/kg/injection, schedule: Q04DX003 (ip), vehicle: steriod suspending solution): 162 % of control

ClC(Cl)(Cl)C1OCCCO1
T/C [1]: 97 % of control | T/C [2]: 107 % of control | T/C [3]: 103 % of control

O=C(COCC(=O)N/N=C/C=C/c1ccccc1)N/N=C/C=C/c1ccccc1
T/C [4]: 96 % of control | T/C [5]: 104 % of control | T/C [6]: 95 % of control

CCCCC(CC)CO.[Ti] (stereo unspecified)
T/C [7]: 96 % of control | T/C [8]: 96 % of control

CCCCCCCCCC/C=N\N=C(N)N
T/C (dose: 15.0 mg/kg/injection, schedule: Q01DX Z (ip), vehicle: other): 107 % of control | T/C (dose: 15.0 mg/kg/injection, schedule: Q01DX Z (oral), vehicle: carboxymethylcellulose (CMC)): 96 % of control | T/C (dose: 30.0 mg/kg/injection, schedule: Q01DX Z (ip), vehicle: other): 97 % of control | T/C (dose: 30.0 mg/kg/injection, schedule: Q01DX Z (oral), vehicle: carboxymethylcellulose (CMC)): 103 % of control | T/C (dose: 60.0 mg/kg/injection, schedule: Q01DX Z (oral), vehicle: carboxymethylcellulose (CMC)): 96 % of control | T/C (dose: 120.0 mg/kg/injection, schedule: Q01DX Z (oral), vehicle: carboxymethylcellulose (CMC)): 103 % of control

CCOC(=O)Cc1c(C(=O)OCC)nnn1-c1ccc([N+](=O)[O-])cc1
T/C (dose: 100.0 mg/kg/injection, schedule: Q04DX002 (ip), vehicle: Klucel (hydroxypropylcellulose) (HPC)): 97 % of control | T/C (dose: 200.0 mg/kg/injection, schedule: Q04DX002 (ip), vehicle: Klucel (hydroxypropylcellulose) (HPC)): 97 % of control | T/C (dose: 400.0 mg/kg/injection, schedule: Q04DX002 (ip), vehicle: Klucel (hydroxypropylcellulose) (HPC)): 93 % of control

Nc1ccccc1SC(CC(=O)c1ccccc1)c1ccccc1 (stereo unspecified)
T/C (dose: 100.0 mg/kg/injection, schedule: Q04DX002 (ip), vehicle: saline with Tween-80): 93 % of control and 96 % of control | T/C [7]: 91 % of control | T/C (dose: 200.0 mg/kg/injection, schedule: Q04DX002 (ip), vehicle: saline with Tween-80): 100 % of control and 103 % of control | T/C [8]: 93 % of control and 109 % of control | T/C (dose: 400.0 mg/kg/injection, schedule: Q04DX002 (ip), vehicle: saline with Tween-80): 98 % of control and 104 % of control | T/C [9]: 95 % of control and 91 % of control

COc1ccc(C(=S)N2CCN(c3ccccc3Cl)CC2)cc1
T/C [1]: 101 % of control | T/C [2]: 91 % of control | T/C [3]: 90 % of control

c1ccc(-c2cnc(-c3ccccc3)[nH]2)cc1
T/C [7]: 97 % of control | T/C [8]: 100 % of control | T/C [9]: 100 % of control

S=C(C/C=C/CC(=S)SN(c1ccccc1)c1ccccc1)SN(c1ccccc1)c1ccccc1
T/C [4]: 91 % of control | T/C [5]: 95 % of control | T/C [6]: 90 % of control

O=C1C=CC(=O)c2cc(Cl)c(Cl)cc21
T/C (dose: 3.12 mg/kg/injection, schedule: Q01DX009 (ip), vehicle: saline): 89 % of control | T/C (dose: 6.25 mg/kg/injection, schedule: Q01DX009 (ip), vehicle: saline): 90 % of control | T/C (dose: 6.25 mg/kg/injection, schedule: Q04DX003 (ip), vehicle: saline): 96 % of control | T/C (dose: 12.5 mg/kg/injection, schedule: Q01DX001 (ip), vehicle: saline): 98 % of control | T/C (dose: 12.5 mg/kg/injection, schedule: Q04DX003 (ip), vehicle: saline): 98 % of control | T/C (dose: 25.0 mg/kg/injection, schedule: Q01DX001 (ip), vehicle: saline): 90 % of control

NC(=O)NC1CCCCCC1
T/C [7]: 94 % of control | T/C [8]: 91 % of control | T/C [9]: 91 % of control

COc1ccc(/C=C2\NC(=O)NC2=O)cc1
T/C [1]: 98 % of control | T/C [2]: 93 % of control | T/C [3]: 95 % of control

Cc1cnc(NCCCC(N)C(=O)O)nc1 (stereo unspecified)
T/C (dose: 100.0 mg/kg/injection, schedule: Q04DX002 (ip), vehicle: saline): 95 % of control | T/C (dose: 200.0 mg/kg/injection, schedule: Q04DX002 (ip), vehicle: saline): 95 % of control

Cc1ccc(S(=O)(=O)Oc2ccc([N+](=O)[O-])cc2[N+](=O)[O-])cc1
T/C (dose: 50.0 mg/kg/injection, schedule: Q01DX001 (ip), vehicle: carboxymethylcellulose (CMC)): 106 % of control | T/C (dose: 50.0 mg/kg/injection, schedule: Q01DX009 (ip), vehicle: other): 100 % of control | T/C (dose: 100.0 mg/kg/injection, schedule: Q01DX001 (ip), vehicle: carboxymethylcellulose (CMC)): 114 % of control | T/C (dose: 100.0 mg/kg/injection, schedule: Q01DX009 (ip), vehicle: other): 96 % of control | T/C [10]: 118 % of control | T/C (dose: 200.0 mg/kg/injection, schedule: Q01DX001 (ip), vehicle: carboxymethylcellulose (CMC)): 106 % of control | T/C [11]: 96 % of control | T/C (dose: 400.0 mg/kg/injection, schedule: Q01DX001 (ip), vehicle: carboxymethylcellulose (CMC)): 106 % of control

O=C(O)CN1C(=O)CN=C(c2ccccn2)c2cc(Cl)ccc21
T/C [4]: 99 % of control | T/C [10]: 100 % of control | T/C [5]: 100 % of control | T/C [11]: 100 % of control | T/C [6]: 97 % of control | T/C (dose: 400.0 mg/kg/injection, schedule: Q04DX003 (ip), vehicle: Klucel (hydroxypropylcellulose) (HPC)): 97 % of control
